Assay results taken from patent publication US20020004218A1, “Methods for identifying compounds useful for inhibiting geranylgeranyl diphosphate synthase” (priority 2000, published 2002).

Legend:
[1] = tested on: osteoclasts; settings: osteoclasts in culture; cited from earlier work
[2] = target: T1, rat liver squalene synthase (Rattus norvegicus, UniProt Q02769); settings: cited from earlier work
T1 construct: host or cells: rat liver
T1 sequence (Q02769 1-416): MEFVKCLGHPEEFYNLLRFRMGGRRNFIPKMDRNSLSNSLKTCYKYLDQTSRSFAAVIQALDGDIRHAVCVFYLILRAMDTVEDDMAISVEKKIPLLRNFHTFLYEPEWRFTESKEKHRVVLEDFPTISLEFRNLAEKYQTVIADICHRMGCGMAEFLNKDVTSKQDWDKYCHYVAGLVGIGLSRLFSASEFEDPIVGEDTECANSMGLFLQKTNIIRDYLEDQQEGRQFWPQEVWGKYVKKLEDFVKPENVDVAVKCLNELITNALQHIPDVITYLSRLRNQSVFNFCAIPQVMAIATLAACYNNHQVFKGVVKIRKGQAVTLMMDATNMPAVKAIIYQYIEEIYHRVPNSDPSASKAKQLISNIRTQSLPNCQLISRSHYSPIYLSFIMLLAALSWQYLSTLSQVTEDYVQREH

[3] = tested on: geranylgeranyl diphosphate synthase
From the text: The present invention relates to a method for identifying inhibitors of geranylgeranyl diphosphate synthase comprising:
a). contacting a putative geranylgeranyl diphosphate synthase inhibitor with a geranylgeranyl diphosphate synthase assay solution, and
b). determining, i.e. comparing, the geranylgeranyl diphosphate synthase activity of said assay solution with a geranylgeranyl diphosphate synthase assay solution not contacted with said putative inhibitor, in order to determine the amount of inhibition.
In these methods the geranylgeranyl diphosphatesynthase assay solution is typically an aqueous solution. The inhibition effect is measured with respect to the catalysis of an appropriate reaction that one of ordinary skill in the art can select. Reaction times, conditions, quatitation methods, and other variables are chosen for convenience to obtain a readily quantitated system for measuring the inhibition of the geranylgeranyl diphosphate synthase.
Additionally, in these methods of identifying inhibitors of geranylgeranyl diphosphate synthase, the enzyme can be used in a crude, unpurified state, from various tissues sources, e.g., liver. Alternatively, the enzyme can be used in a partially purified state, a purified state, or as an expressed form of the enzyme, e.g., the expressed human enzyme.

[4] = tested on: sterol synthesis; settings: incorporation of 14C-MVA into sterol, rat liver cell-free system; read-out: IC50, block of sterol synthesis; cited from earlier work

Row | SMILES | bone resorption [1] | osteoclast formation [1] | inhibition of squalene synthase [2] | inhibition of geranylgeranyl diphosphate synthase [3] | IC50 [4]
1 | CC[C@H](C)C(=O)O[C@H]1C[C@@H](C)C=C2C=C[C@H](C)[C@H](CC[C@@H]3C[C@@H](O)CC(=O)O3)[C@H]21 [lovastatin] | inhibited | inhibited |  |  | 
2 | O=P(O)(O)C(NC1CCCCCC1)P(=O)(O)O [YM 175, Cycloheptylaminomethylene-1,1-bisphosphonic acid] |  |  | potent, nanomolar inhibitors |  | 
3 | O=P(O)(O)C(O)(Cc1cccnc1)P(=O)(O)O [risedronate, 1-hydroxy-2-(3-pyridinyl)-ethylidene-1,1-bisphosphonic acid] |  |  |  | specific nanomolar inhibitors | 
4 | NCCC(O)(P(=O)(O)O)P(=O)(O)O [pamidronate, 3-amino-1-hydroxypropylidene-1,1-bisphosphonic acid] |  |  | comparatively little effect |  | 420 nM
5 | O=P(O)(O)C(O)(CCN1CCCC1)P(=O)(O)O [EB 1053, 1-hydroxy-3-(1-pyrrolidinyl)-propylidene-1,1-bisphosphonic acid] |  |  | potent, nanomolar inhibitors |  | 
6 | NCCCC(O)(P(=O)(O)O)P(=O)(O)O [alendronate, 4-amino-1-hydroxybutylidene-1,1-bisphosphonic acid monosodium trihydrate] | inhibited | inhibited | comparatively little effect |  | 168 nM
